Source: paper PMC11880385 (Nature Communications, 2025)
In brackets after ≈: the same amount, converted by molar mass. Entries after “also recorded” stand apart in the source; their conditions may differ.

Key:
[1] = molecular target: T1, C. albicans Yck2 kinase domain (Candida albicans, UniProt A0A1D8PKB4); assay: biochemical; type: biochemical; conditions: for CaYck2 IC50: two-fold dose-response up to 1 µM, ATP 20 μM (Km)
T1 sequence (A0A1D8PKB4 37-345): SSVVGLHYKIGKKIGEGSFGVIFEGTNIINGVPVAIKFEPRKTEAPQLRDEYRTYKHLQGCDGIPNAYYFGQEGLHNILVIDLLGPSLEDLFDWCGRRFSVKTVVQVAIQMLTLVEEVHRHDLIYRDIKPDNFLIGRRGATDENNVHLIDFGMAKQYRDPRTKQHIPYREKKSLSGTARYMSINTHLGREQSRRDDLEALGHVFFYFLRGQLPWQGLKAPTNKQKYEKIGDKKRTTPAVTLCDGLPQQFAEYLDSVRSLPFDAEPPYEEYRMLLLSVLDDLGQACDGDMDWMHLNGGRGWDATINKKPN

[2] = test system: C. albicans Yck2 kinase domain; assay: biochemical; type: biochemical, Candida albicans; conditions: Ratio of HsCK1α IC50 / CaYck2 IC50
[3] = molecular target: human CK1α (Homo sapiens, UniProt P48729); assay: HsCK1α kinase inhibition assay; type: biochemical
[4] = Mouse liver microsomal stability assay; conditions: mouse liver microsomes; for metabolic stability category: 30 minutes, 1 μM; for remaining at 0.5 h, 1 µM: mouse
[5] = test system: C. albicans (CaSS1); assay: C. albicans growth inhibition, two-fold dose-response assay; conditions: for MIC80: Candida albicans, 48 h, read-out: C. albicans MIC80; for whole-cell antifungal activity against C. albicans / concentration at which bioactivity was retained: 5% CO2
[6] = Plasma, kidney and brain exposure in mice; conditions: 50 mg/kg oral
[7] = test system: J774A.1 cells infected with C. albicans (SC5314); assay: Macrophage killing assay; conditions: for macrophage viability in co-culture: 30 µM; for IC50: Mus musculus, J774.A1, 24 h, read-out: IC50 of rescuing macrophage viability
[8] = Tolerability on repeated oral dosing in uninfected mice; conditions: 25 mg/kg once daily over 3 days
[9] = test system: C. albicans (TEF1p-GFP) in J774A.1 cells; assay: Visualization of C. albicans filamentation in macrophages; conditions: 4 h incubation; 0.94, 7.5 or 30 µM
[10] = Plasma pharmacokinetic profiling in mice; conditions: female, CD1, mouse, in vivo, po, 25 mg/kg, maximal plasma concentration (Cmax), 25 mg/kg p.o.
[11] = test system: C. albicans (FKS1^T1922C/FKS1^T1922C Eno1-GFP); assay: HepG2 / C. albicans co-culture: fungal burden by GFP fluorescence
[12] = test system: echinocandin-resistant C. albicans strain (DPL15; FKS1^T1922C/FKS1^T1922C); assay: Caspofungin potentiation dose-response assay in echinocandin-resistant strain; conditions: sub-inhibitory caspofungin (3 µg/mL); YPD, 30 °C, 48 h
[13] = test system: HepG2-fLuc cells; assay: HepG2 / C. albicans co-culture: HepG2 survival by luminescence
[14] = test system: C. albicans (TEF1p-GFP) in co-culture with J774A.1 cells; assay: C. albicans growth in co-culture with macrophages; conditions: 16 h post-infection
[15] = test system: C. auris; conditions: cited from earlier work
[16] = test system: Cryptococcus neoformans; conditions: cited from earlier work
[17] = test system: Nakaseomyces glabratus (formerly referred to as Candida glabrata); conditions: cited from earlier work
[18] = test system: Aspergillus fumigatus; conditions: cited from earlier work

Chain of human CK1α (P48729 whole entry): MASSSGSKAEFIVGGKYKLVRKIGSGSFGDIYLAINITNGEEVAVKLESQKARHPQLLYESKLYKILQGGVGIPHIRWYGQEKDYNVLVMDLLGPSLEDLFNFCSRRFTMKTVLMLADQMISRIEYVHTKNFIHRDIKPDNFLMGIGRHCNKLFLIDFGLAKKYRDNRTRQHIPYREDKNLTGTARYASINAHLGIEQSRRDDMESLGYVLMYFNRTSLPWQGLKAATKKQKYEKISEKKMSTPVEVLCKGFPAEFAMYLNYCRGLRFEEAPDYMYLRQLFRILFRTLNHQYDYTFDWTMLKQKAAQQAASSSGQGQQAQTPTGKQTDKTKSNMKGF

Row | Compound | IC50 [1] [nM] | Fungal selectivity (fold) [2] [fold] | IC50 [3] [nM] | remaining at 0.5 h, 1 µM [4] [%] | MIC80 [5] [µM] | whole-cell antifungal activity against C. albicans ([5]; RPMI, 37 °C) | also measured
1 | Cc1ccn2c(-c3ccncc3)c(-c3ccc(F)cc3)nc2c1 [Compound 1a] | 630 | 2.6 | 1700 | 0 | > 100 | – | metabolic stability category [4]: unstable (compound concentration remaining in the microsomal suspension after incubation for 30 minutes was ≤ 50% of the starting concentration (1 μM))
2 | COc1ccn2c(-c3ccncc3)c(-c3ccc(F)cc3)nc2c1 [Compound 1b] | 260 | 3.9 | 1000 | 2 | 50 (≈ 16 µg/mL) | robust anti-C. albicans bioactivity | –
3 | CC(C)(C)c1ccn2c(-c3ccncc3)c(-c3ccc(F)cc3)nc2c1 [Compound 1c] | 700 | 8.6 | 6100 | 67 | > 100 | – | –
4 | CCc1ccn2c(-c3ccncc3)c(-c3ccc(F)cc3)nc2c1 [Compound 1d] | 490 | 3.5 | 1700 | 0 | 50 (≈ 15.9 µg/mL) | – | concentration at which bioactivity was retained ([5]; RPMI, 37 °C): 50 µM
5 | N#Cc1ccn2c(-c3ccncc3)c(-c3ccc(F)cc3)nc2c1 [Compound 1e] | – | – | – | 80 | 50 (≈ 15.7 µg/mL) | robust anti-C. albicans bioactivity | brain penetration [6]: accumulated in brain tissue at levels higher than the systemic circulation; macrophage viability in co-culture [7]: restoring full viability; IC50 [7]: 6680 nM; changes in animal weight or behavior [8]: no changes in animal weight or behavior were observed; filamentation of C. albicans [9]: inhibited filamentation; Cmax [10]: ~36 µM; concentration clearing the majority of co-cultured C. albicans ([11]; 48 h co-culture with HepG2): 6.25 µM; reduction in MIC80 upon addition of caspofungin [12]: ≥ 32 fold
6 | Fc1ccc(-c2nc3cc(F)ccn3c2-c2ccncc2)cc1 [Compound 1f] | – | – | 1400 | 75 | 50 (≈ 15.4 µg/mL) | robust anti-C. albicans bioactivity | macrophage viability in co-culture [7]: restoring full viability; filamentation of C. albicans [9]: inhibited filamentation; rescue of HepG2 viability ([13]; at or above 6.25 µM): partially rescued HepG2 viability; C. albicans in co-culture relative to compound-free controls ([11]; at or above 6.25 µM): ~ 50%; reduction in MIC80 upon addition of caspofungin [12]: ≥ 4 fold
7 | Fc1ccc(-c2nc3cc(C(F)(F)F)ccn3c2-c2ccncc2)cc1 [Compound 1g] | 630 | 13 | 8400 | 84 | > 100 | loss of bioactivity | –
8 | Fc1ccc(-c2nc3cc(C4CC4)ccn3c2-c2ccncc2)cc1 [Compound 1h] | 180 | – | – | 0 | 50 to 100 (≈ 16.5 to 32.9 µg/mL) | – | concentration at which bioactivity was retained ([5]; RPMI, 37 °C): 50 µM
9 | CCCc1ccn2c(-c3ccncc3)c(-c3ccc(F)cc3)nc2c1 [Compound 1i] | – | – | – | 0 | > 100 | – | –
10 | N#Cc1ccc2c(-c3ccncc3)c(-c3ccc(F)cc3)nn2c1 [Compound 2a] | – | – | – | – | 12.5 (≈ 3.93 µg/mL) | robust anti-C. albicans bioactivity | brain penetration [6]: accumulated in brain tissue at levels higher than the systemic circulation; macrophage viability in co-culture [7]: restoring full viability; IC50 [7]: 2170 nM; changes in animal weight or behavior [8]: no changes in animal weight or behavior were observed; filamentation of C. albicans [9]: inhibited filamentation; reduction of C. albicans growth in co-culture [14]: most effective; Cmax [10]: ~15 µM; C. albicans MIC80 ([5]; wild-type C. albicans, RPMI, 37 °C, 5% CO2, 48 h): 12.5 µM; reduction in MIC80 upon addition of caspofungin [12]: ≥ 32 fold
11 | Fc1ccc(-c2nn3cc(F)ccc3c2-c2ccncc2)cc1 [Compound 2b] | – | – | – | – | 25 (≈ 7.68 µg/mL) | robust anti-C. albicans bioactivity | macrophage viability in co-culture [7]: restoring full viability; filamentation of C. albicans [9]: inhibited filamentation; concentrations giving mild reduction in HepG2 viability [13]: > 12.5 µM; reduction in MIC80 upon addition of caspofungin [12]: ≥ 32 fold
12 | Fc1ccc(-c2nn3cc(C(F)(F)F)ccc3c2-c2ccncc2)cc1 [Compound 2c] | > 1000 | – | – | – | > 100 | little to no whole-cell antifungal activity; also recorded: loss of bioactivity | CaYck2 IC50 [1]: above the maximum concentration tested
13 | COc1ccc2c(-c3ccncc3)c(-c3ccc(F)cc3)nn2c1 [Compound 2d] | – | – | – | – | 12.5 (≈ 3.99 µg/mL) | robust anti-C. albicans bioactivity | –
14 | Oc1ccc2c(-c3ccncc3)c(-c3ccc(F)cc3)nn2c1 [Compound 2e] | – | – | – | – | > 100 | no measurable whole-cell activity | –
15 | Cc1ccn2nc(-c3ccc(F)cc3)c(-c3ccncc3)c2c1 [Compound 2f] | – | – | 2000 | 1 | – | – | metabolic stability category [4]: unstable (compound concentration remaining in the microsomal suspension after incubation for 30 minutes was ≤ 50% of the starting concentration (1 μM))
16 | Fc1ccc(-c2nn3ccc(C(F)(F)F)cc3c2-c2ccncc2)cc1 [Compound 2h] | > 1000 | – | > 15000 | – | – | little to no whole-cell antifungal activity | CaYck2 IC50 [1]: above the maximum concentration tested
17 | Oc1ccn2nc(-c3ccc(F)cc3)c(-c3ccncc3)c2c1 [Compound 2k] | – | – | – | – | > 100 | no measurable whole-cell activity | –
18 | Fc1ccc(-c2nn3cccc(F)c3c2-c2ccncc2)cc1 [Compound 2m] | – | 27 | – | – | 25 (≈ 7.68 µg/mL) | – | –
19 | COc1cccn2nc(-c3ccc(F)cc3)c(-c3ccncc3)c12 [Compound 2n] | 120 | 41 | 4900 | 1 | 25 (≈ 7.98 µg/mL) | – | –
20 | N#Cc1cccn2nc(-c3ccc(F)cc3)c(-c3ccncc3)c12 [Compound 2o] | > 1000 | – | > 15000 | – | – | little to no whole-cell antifungal activity | CaYck2 IC50 [1]: above the maximum concentration tested
21 | Cc1ccc2c(-c3ccncc3)c(-c3ccc(F)cc3)nn2c1 [GW, GW461484A, reference compound] | – | – | – | < 1 | 12.5 (≈ 3.79 µg/mL) | – | antifungal activity [15]: possesses antifungal activity; antifungal activity [16]: possesses antifungal activity; single-agent antifungal activity in vitro [17]: no single-agent antifungal activity was observed; single-agent antifungal activity in vitro [18]: no single-agent antifungal activity was observed; macrophage viability in co-culture [7]: restoring full viability; IC50 [7]: 2050 nM; metabolic stability category [4]: unstable (compound concentration remaining in the microsomal suspension after incubation for 30 minutes was ≤ 50% of the starting concentration (1 μM)); filamentation of C. albicans [9]: inhibited filamentation; reduction of C. albicans growth in co-culture [14]: most effective; reduction in MIC80 upon addition of caspofungin [12]: ≥ 32 fold
